Measurements from patent US20230276831A1, “Food/Beverage Article” (Kikkoman Corporation, priority 2020, published 2023).

How the values were obtained:
[1] = test system: Lactobacillus fructivores (NBRC 13954); test: Antimicrobial action of oxygen-containing heterocyclic compounds in soy sauce (Test Example 7); format: cell-based; details: NBRC13954, 168 h, salt 4% (w/v), alcohol 5% (v/v)
Experimental: Commercially available whole soybean soy sauce (produced by Kikkoman Corporation) was electrodialyzed and then concentrated under reduced pressure to produce soy sauce at a salt concentration of 0% (w/v) and an alcohol concentration of 0% (v/v). Then, salt and/or alcohol was added to the above-mentioned obtained soy sauce, and the mixture was then heat-treated to produce soy sauce at a salt concentration of 4% (w/v) and an alcohol concentration of 5% (v/v).
The test substance described in Table 21 was added to the soy sauce produced in Test Example 6 to concentrations of 0.1 ppm, 0.5 ppm, 1 ppm, 5 ppm, 25 ppm, and 50 ppm. Lactic acid bacteria (Lactobacillus fructivores (NBRC 13954)) were then added to 10^4 to 10^5 cells/mL and cultured at 30° C. for 7 days. After the culture, the number of lactic acid bacteria was measured using Difco Lactobacilli MRS Agar. Soy sauce to which the test substance was not added was used as a control group, and the antimicrobial activity was evaluated in comparison with the number of lactic acid bacteria in the control group. The evaluation was performed using the following criterion.
• A: The bacterial count decreases to less than 10% of the bacterial count of a control group. • B: The bacterial count decreases to 10% or more and less than 50% of the bacterial count of the control group. • C: The bacterial count decreases to 50% or more and less than 100% of the bacterial count of the control group. • D: The bacterial count is the same as the bacterial count of the control group.

[2] = test system: Lactobacillus acidipiscis NBRC 102164; test: Antimicrobial action of licoricidin in liquid seasoning (1), lactic acid bacteria D; format: cell-based; design: key: A: The bacterial count decreases to less than 10% of the bacterial count of the control group.; B: The bacterial count decreases to 10% or more and less than 50% of the bacterial count of the control group.; C: The bacterial count decreases to 50% or more and less than 100% of the bacterial count of control group.; D: The bacterial count is the same as the bacterial count of the control group
Experimental: Commercially available whole soybean soy sauce (produced by Kikkoman Corporation) was electrodialyzed and then concentrated under reduced pressure to obtain soy sauce at a salt concentration of 0% (w/v) and an alcohol concentration of 0% (v/v). Then, salt and/or alcohol was added to the above-mentioned obtained soy sauce, and the mixture was heat-treated to produce soy sauces at salt concentrations and alcohol concentrations shown in the following Table 5. The pHs of the soy sauces were 4.9 to 5.0.
Specifically, components contained in dried bonito was extracted with alcohol and water; sugar, salt, and seasonings were blended with the obtained extract; and the resulting mixture was heated to produce bonito stock. The salt concentration of the obtained bonito stock was 0.2% (w/v), the alcohol concentration was 0.15% (v/v), and the pH was 6.1.
Specifically, Koikuchi soy sauce (produced by Kikkoman Corporation), granulated sugar, potato starch, and water were blended in amounts shown in following Table 7, and the resulting mixture was heated to produce sauce. The salt concentration of the obtained sauce was 5.3% (w/v), the alcohol concentration was 0.8% (v/v), and the pH was 5.0.
Specifically, the components contained in dried bonito was extracted with water; Koikuchi soy sauce (produced by Kikkoman Corporation), sugar, and salt were blended with the obtained extract; and the resulting mixture was heated to produce Japanese seasoned soup stock. The salt concentration of the obtained Japanese seasoned soup stock was 3% (w/v), the alcohol concentration was 0.4% (v/v), and the pH was 5.5.
Licoricidin (produced by ChemFaces) was added to each of the liquid seasonings produced in the above-mentioned (1) to concentrations of 1 ppm, 5 ppm, 10 ppm, 25 ppm, and 50 ppm. Lactic acid bacteria described in the following Table 9 were then added to 10^6 to 10^7 cells/mL and cultured at 30° C. for 7 days. After the culture, the number of lactic acid bacteria was measured using the GAM agar medium “Nissui”. Liquid seasoning to which licoricidin was not added was used as a control group, and the antimicrobial activity was evaluated in comparison with the number of lactic acid bacteria in the control group. The evaluation was performed using the criterion shown below.
• A: The bacterial count decreases to less than 10% of the bacterial count of the control group. • B: The bacterial count decreases to 10% or more and less than 50% of the bacterial count of the control group. • C: The bacterial count decreases to 50% or more and less than 100% of the bacterial count of control group. • D: The bacterial count is the same as the bacterial count of the control group.

## COc1c(CC=C(C)C)c(O)cc2c1C[C@H](c1ccc(O)c(CC=C(C)C)c1O)CO2 [Licoricidin, 4-[(R)-7-hydroxy-5-methoxy-6-(3-methyl-2-butenyl)chroman-3-yl]-2-(3-methyl-2-butenyl)-1,3-benzenediol]
[1]; test substance 0.1 ppm
  activity at 0.1 ppm: 10 to 50%
[1]; test substance 0.5 ppm
  activity at 0.5 ppm: 10 to 50%
[1]; test substance 1 ppm
  activity at 1 ppm: 10 to 50%
[1]; test substance 5 ppm
  activity at 5 ppm: 10 to 50%
[1]; test substance 25 ppm
  activity at 25 ppm: < 10%
[1]; test substance 50 ppm
  activity at 50 ppm: < 10%
[2]; Bonito stock (salt 0.2% (w/v), alcohol 0.15% (v/v), pH 6.1), licoricidin 1 ppm
  Antimicrobial activity: A (The bacterial count decreases to less than 10% of the bacterial count of the control group.)
[2]; Bonito stock (salt 0.2% (w/v), alcohol 0.15% (v/v), pH 6.1), licoricidin 5 ppm
  Antimicrobial activity: A (The bacterial count decreases to less than 10% of the bacterial count of the control group.)
[2]; Bonito stock (salt 0.2% (w/v), alcohol 0.15% (v/v), pH 6.1), licoricidin 10 ppm
  Antimicrobial activity: A (The bacterial count decreases to less than 10% of the bacterial count of the control group.)
[2]; Bonito stock (salt 0.2% (w/v), alcohol 0.15% (v/v), pH 6.1), licoricidin 25 ppm
  Antimicrobial activity: A (The bacterial count decreases to less than 10% of the bacterial count of the control group.)
[2]; Bonito stock (salt 0.2% (w/v), alcohol 0.15% (v/v), pH 6.1), licoricidin 50 ppm
  Antimicrobial activity: A (The bacterial count decreases to less than 10% of the bacterial count of the control group.)
[2]; Japanese seasoned soup stock (salt 3% (w/v), alcohol 0.4% (v/v), pH 5.5), licoricidin 1 ppm
  Antimicrobial activity: D
[2]; Japanese seasoned soup stock (salt 3% (w/v), alcohol 0.4% (v/v), pH 5.5), licoricidin 5 ppm
  Antimicrobial activity: A (The bacterial count decreases to less than 10% of the bacterial count of the control group.)
[2]; Japanese seasoned soup stock (salt 3% (w/v), alcohol 0.4% (v/v), pH 5.5), licoricidin 10 ppm
  Antimicrobial activity: A (The bacterial count decreases to less than 10% of the bacterial count of the control group.)
[2]; Japanese seasoned soup stock (salt 3% (w/v), alcohol 0.4% (v/v), pH 5.5), licoricidin 25 ppm
  Antimicrobial activity: A (The bacterial count decreases to less than 10% of the bacterial count of the control group.)
[2]; Japanese seasoned soup stock (salt 3% (w/v), alcohol 0.4% (v/v), pH 5.5), licoricidin 50 ppm
  Antimicrobial activity: A (The bacterial count decreases to less than 10% of the bacterial count of the control group.)
[2]; Sauce (salt 5.3% (w/v), alcohol 0.8% (v/v), pH 5.0), licoricidin 1 ppm
  Antimicrobial activity: C (The bacterial count decreases to 50% or more and less than 100% of the bacterial count of control group.)
[2]; Sauce (salt 5.3% (w/v), alcohol 0.8% (v/v), pH 5.0), licoricidin 5 ppm
  Antimicrobial activity: C (The bacterial count decreases to 50% or more and less than 100% of the bacterial count of control group.)
[2]; Sauce (salt 5.3% (w/v), alcohol 0.8% (v/v), pH 5.0), licoricidin 10 ppm
  Antimicrobial activity: A (The bacterial count decreases to less than 10% of the bacterial count of the control group.)
[2]; Sauce (salt 5.3% (w/v), alcohol 0.8% (v/v), pH 5.0), licoricidin 25 ppm
  Antimicrobial activity: A (The bacterial count decreases to less than 10% of the bacterial count of the control group.)
[2]; Sauce (salt 5.3% (w/v), alcohol 0.8% (v/v), pH 5.0), licoricidin 50 ppm
  Antimicrobial activity: A (The bacterial count decreases to less than 10% of the bacterial count of the control group.)
[2]; Soy sauce, salt 0% (w/v), alcohol 0% (v/v), licoricidin 1 ppm
  Antimicrobial activity: C (The bacterial count decreases to 50% or more and less than 100% of the bacterial count of control group.)
[2]; Soy sauce, salt 0% (w/v), alcohol 0% (v/v), licoricidin 5 ppm
  Antimicrobial activity: C (The bacterial count decreases to 50% or more and less than 100% of the bacterial count of control group.)
[2]; Soy sauce, salt 0% (w/v), alcohol 0% (v/v), licoricidin 10 ppm
  Antimicrobial activity: B (The bacterial count decreases to 10% or more and less than 50% of the bacterial count of the control group.)
[2]; Soy sauce, salt 0% (w/v), alcohol 0% (v/v), licoricidin 25 ppm
  Antimicrobial activity: A (The bacterial count decreases to less than 10% of the bacterial count of the control group.)
[2]; Soy sauce, salt 0% (w/v), alcohol 0% (v/v), licoricidin 50 ppm
  Antimicrobial activity: A (The bacterial count decreases to less than 10% of the bacterial count of the control group.)
[2]; Soy sauce, salt 4% (w/v), alcohol 0% (v/v), licoricidin 1 ppm
  Antimicrobial activity: D
[2]; Soy sauce, salt 4% (w/v), alcohol 0% (v/v), licoricidin 5 ppm
  Antimicrobial activity: A (The bacterial count decreases to less than 10% of the bacterial count of the control group.)
[2]; Soy sauce, salt 4% (w/v), alcohol 0% (v/v), licoricidin 10 ppm
  Antimicrobial activity: A (The bacterial count decreases to less than 10% of the bacterial count of the control group.)
[2]; Soy sauce, salt 4% (w/v), alcohol 0% (v/v), licoricidin 25 ppm
  Antimicrobial activity: A (The bacterial count decreases to less than 10% of the bacterial count of the control group.)
[2]; Soy sauce, salt 4% (w/v), alcohol 0% (v/v), licoricidin 50 ppm
  Antimicrobial activity: A (The bacterial count decreases to less than 10% of the bacterial count of the control group.)
[2]; Soy sauce, salt 8% (w/v), alcohol 0% (v/v), licoricidin 1 ppm
  Antimicrobial activity: C (The bacterial count decreases to 50% or more and less than 100% of the bacterial count of control group.)
[2]; Soy sauce, salt 8% (w/v), alcohol 0% (v/v), licoricidin 5 ppm
  Antimicrobial activity: A (The bacterial count decreases to less than 10% of the bacterial count of the control group.)
[2]; Soy sauce, salt 8% (w/v), alcohol 0% (v/v), licoricidin 10 ppm
  Antimicrobial activity: A (The bacterial count decreases to less than 10% of the bacterial count of the control group.)
[2]; Soy sauce, salt 8% (w/v), alcohol 0% (v/v), licoricidin 25 ppm
  Antimicrobial activity: A (The bacterial count decreases to less than 10% of the bacterial count of the control group.)
[2]; Soy sauce, salt 8% (w/v), alcohol 0% (v/v), licoricidin 50 ppm
  Antimicrobial activity: A (The bacterial count decreases to less than 10% of the bacterial count of the control group.)
[2]; Soy sauce, salt 12% (w/v), alcohol 0% (v/v), licoricidin 1 ppm
  Antimicrobial activity: D
[2]; Soy sauce, salt 12% (w/v), alcohol 0% (v/v), licoricidin 5 ppm
  Antimicrobial activity: A (The bacterial count decreases to less than 10% of the bacterial count of the control group.)
[2]; Soy sauce, salt 12% (w/v), alcohol 0% (v/v), licoricidin 10 ppm
  Antimicrobial activity: A (The bacterial count decreases to less than 10% of the bacterial count of the control group.)
[2]; Soy sauce, salt 12% (w/v), alcohol 0% (v/v), licoricidin 25 ppm
  Antimicrobial activity: A (The bacterial count decreases to less than 10% of the bacterial count of the control group.)
[2]; Soy sauce, salt 12% (w/v), alcohol 0% (v/v), licoricidin 50 ppm
  Antimicrobial activity: A (The bacterial count decreases to less than 10% of the bacterial count of the control group.)
